Results reported in ChEMBL document CHEMBL5727878, “Triazole furan compounds as agonists of the APJ receptor” (2020).
pEC50: −log10 of the molar value.

Biological target: T1, Apelin receptor (Homo sapiens, UniProt P35414)
T1 sequence (P35414 whole entry): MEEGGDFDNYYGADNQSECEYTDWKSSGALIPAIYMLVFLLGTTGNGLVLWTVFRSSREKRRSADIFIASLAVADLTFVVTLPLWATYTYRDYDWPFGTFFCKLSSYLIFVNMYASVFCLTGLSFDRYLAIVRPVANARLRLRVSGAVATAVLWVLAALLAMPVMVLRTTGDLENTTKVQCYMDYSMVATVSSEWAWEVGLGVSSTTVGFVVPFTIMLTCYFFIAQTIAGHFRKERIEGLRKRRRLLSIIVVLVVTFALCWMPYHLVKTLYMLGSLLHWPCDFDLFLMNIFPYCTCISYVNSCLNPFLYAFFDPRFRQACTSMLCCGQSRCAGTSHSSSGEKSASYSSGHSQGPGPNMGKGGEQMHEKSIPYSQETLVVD
Experiment: GTPγS Binding: The human APJ receptor was cloned by polymerase chain reaction and the gene encoding the receptor was subcloned in pFLAG-CMV-3 expression vector (Sigma, Saint Louis, Mo. USA) in-house at Amgen. A GTPγS binding assay was performed on membranes prepared from CHO cells stably expressing human APJ receptor. The optimum experimental conditions for the concentrations of GDP, MgCl2, and NaCl in the assay buffer were initially determined. The assay was performed in assay buffer [20 mM HEPES, pH 7.5, 5 mM MgCl2, and 0.1% (w/v) BSA with 200 mM NaCl, 3 μM GDP] and membranes expressing human APJ receptor/well along with WGA PS beads. The reaction was initiated by addition of 0.2 nM [35S]GTPγS in the absence or presence of various ligands and incubated at RT for 90 min. Nonspecific binding was determined in the presence of 100 μM GTPγS and was always less than 0.2% of total binding.

SMILES | pEC50
COc1cc[nH]c(=O)c1-n1c(NS(=O)(=O)[C@@H](C)[C@H](C)c2ncc(C)cn2)nnc1-c1ccc(C)o1 (single isomer, unassigned; form 2) | 7.43
COc1cc[nH]c(=O)c1-n1c(NS(=O)(=O)[C@@H](C)[C@H](C)c2ncc(F)cn2)nnc1-c1ccc(C)o1 (single isomer, unassigned; form 2) | 7.29
